Results published in patent publication US8952024B2, “Herbicidal pyrimidone derivatives” (E I du Pont de Nemours and Company, priority 2009, dated 2015).

How the values were obtained:
Type in all cases: in vivo
[1] = test system: canarygrass (Phalaris minor); test: Test B postemergence plant response; conditions: Postemergence
Procedure, shortened: (§1)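 Visual ratings from 0 (no effect) to 100 (complete control), made against controls 13–15 days after treatment, kept in a greenhouse. Compounds were applied postemergence to potted plants at the 1- to 4-leaf stage (2–18 cm).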

[2] = test system: windgrass (Apera spica-venti); test: Test B postemergence plant response; conditions: Postemergence
Procedure, shortened: as §1

[3] = test system: chickweed (Stellaria media); test: Test B postemergence plant response; conditions: Postemergence
Procedure, shortened: as §1

[4] = test system: winter barley (Hordeum vulgare); test: Test B postemergence plant response; conditions: Postemergence
Procedure, shortened: as §1

corn (Zea mays) = test: Test B pre-/postemergence plant response
Procedure, shortened: (§2)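 Each species received compound formulated in non-phytotoxic solvent with surfactant, either at planting into a loam and sand blend or as a foliar spray once plants reached 2 to 18 cm in peat-based medium. Plants stayed in the greenhouse 13 to 15 days before visual evaluation against controls, scored 0 (no effect) to 100 (complete control).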

[5] = test system: yellow nutsedge (Cyperus esculentus); test: Test B pre-/postemergence plant response
Procedure, shortened: as §2

[6] = test system: giant foxtail (Setaria faberii); test: Test B pre-/postemergence plant response
Procedure, shortened: as §2

[7] = test system: goosegrass (Eleusine indica); test: Test B pre-/postemergence plant response
Procedure, shortened: as §2

[8] = test system: velvetleaf (Abutilon theophrasti); test: Test B pre-/postemergence plant response
Procedure, shortened: as §2

[9] = test system: green foxtail (Setaria viridis); test: Test B pre-/postemergence plant response
Procedure, shortened: as §2

soybean (Glycine max) = test: Test B pre-/postemergence plant response
Procedure, shortened: as §2

[10] = test system: johnsongrass (Sorghum halepense); test: Test B pre-/postemergence plant response
Procedure, shortened: as §2

[11] = test system: lambsquarters (Chenopodium album); test: Test B pre-/postemergence plant response
Procedure, shortened: as §2

[12] = test system: pigweed (Amaranthus retroflexus); test: Test B pre-/postemergence plant response
Procedure, shortened: as §2

[13] = 31 g ai/ha, scale 0 to 100 (0 no effect, 100 complete control)
[14] = 62 g ai/ha, scale 0 (no effect) to 100 (complete control), 13 to 15 days
[15] = 125 g ai/ha, visual rating after 13 to 15 days, scale 0 (no effect) to 100 (complete control)
[16] = 250 g ai/ha, Preemergence, 0 to 100 scale
[17] = Postemergence, 31 g ai/ha, scale 0 to 100 (0 no effect, 100 complete control)
[18] = Postemergence, 62 g ai/ha, scale 0 (no effect) to 100 (complete control), 13 to 15 days
[19] = Postemergence, 125 g ai/ha, visual rating after 13 to 15 days, scale 0 (no effect) to 100 (complete control)
[20] = Postemergence, 250 g ai/ha, scale 0 to 100
[21] = Preemergence, 31 g ai/ha, scale 0 to 100 (0 no effect, 100 complete control)
[22] = Preemergence, 62 g ai/ha, scale 0 to 100 (0 no effect, 100 complete control)
[23] = Preemergence, 125 g ai/ha, 0 to 100 scale
[24] = 31 g ai/ha, 0 to 100 scale (0 no effect, 100 complete control)
[25] = 62 g ai/ha, scale 0 to 100 (0 no effect, 100 complete control)
[26] = 125 g ai/ha, scale 0 to 100 (0 no effect, 100 complete control)
[27] = 250 g ai/ha, scale 0 to 100 (0 no effect, 100 complete control), 13 to 15 days
[28] = Postemergence, 31 g ai/ha, 0 to 100 scale (0 no effect, 100 complete control)
[29] = Postemergence, 62 g ai/ha, scale 0 to 100 (0 no effect, 100 complete control)
[30] = Postemergence, 125 g ai/ha, scale 0 to 100 (0 no effect, 100 complete control)
[31] = Postemergence, 250 g ai/ha, scale 0 to 100 (0 no effect, 100 complete control), 13 to 15 days

O=C1CCCC(O)=C1C(=O)c1cnc(-c2ccccc2)n(-c2ccccc2F)c1=O [Compound 26]
45: Foxtail, Giant plant response rating [6, 23]
5: Plant response rating, Foxtail, Giant [6, 21] | Plant response rating, Goosegrass [7, 21]
85: Plant response rating, Chickweed [3, 15] | Chickweed plant response rating ([3]; 250 g ai/ha, scale 0 to 100) | Plant response rating, Nutsedge, Yellow [5, 16] | Plant response rating, Foxtail, Green [9, 19] | Plant response rating, Pigweed [12, 19]
10: Plant response rating, Windgrass [2, 13] | Plant response rating, Nutsedge, Yellow [5, 21] | Plant response rating, Foxtail, Giant [6, 22] | Plant response rating, Johnsongrass [10, 22]
50: Plant response rating, Canarygrass [1, 15] | Plant response rating, Chickweed [3, 14] | Corn plant response rating (corn (Zea mays); [20]) | Plant response rating, Nutsedge, Yellow [5, 22] | Nutsedge, Yellow plant response rating [5, 23] | Plant response rating, Velvetleaf [8, 21] | Plant response rating, Soybean (soybean (Glycine max); [21]) | Plant response rating, Johnsongrass [10, 18] | Plant response rating, Johnsongrass [10, 19] | Plant response rating, Pigweed [12, 17]
90: Plant response rating, Foxtail, Giant [6, 16] | Plant response rating, Goosegrass [7, 18] | Plant response rating, Velvetleaf [8, 22] | Plant response rating, Soybean (soybean (Glycine max); [16]) | Plant response rating, Johnsongrass [10, 16] | Plant response rating, Lambsquarters [11, 18] | Plant response rating, Lambsquarters [11, 19]
0: Plant response rating, Barley [4, 13] | Plant response rating, Barley [4, 14] | Plant response rating, Barley ([4]; 125 g ai/ha, scale 0 to 100 (0 no effect, 100 complete control), 13 to 15 days) | Barley plant response rating ([4]; 250 g ai/ha, scale 0 to 100) | Plant response rating, Corn (corn (Zea mays); [16]) | Plant response rating, Corn (corn (Zea mays); [21]) | Plant response rating, Corn (corn (Zea mays); [22]) | Corn plant response rating (corn (Zea mays); [23]) | Plant response rating, Foxtail, Green [9, 21] | Plant response rating, Foxtail, Green [9, 22] | Plant response rating, Johnsongrass [10, 21]
95: Foxtail, Giant plant response rating [6, 20] | Plant response rating, Goosegrass [7, 19] | Goosegrass plant response rating [7, 20] | Goosegrass plant response rating [7, 23] | Plant response rating, Velvetleaf [8, 19] | Foxtail, Green plant response rating [9, 20] | Plant response rating, Soybean (soybean (Glycine max); [17]) | Plant response rating, Soybean (soybean (Glycine max); [18]) | Plant response rating, Soybean (soybean (Glycine max); [19])
30: Plant response rating, Canarygrass [1, 14] | Plant response rating, Windgrass [2, 14] | Plant response rating, Nutsedge, Yellow [5, 17] | Plant response rating, Nutsedge, Yellow [5, 18] | Foxtail, Green plant response rating [9, 23]
80: Soybean plant response rating (soybean (Glycine max); [23]) | Plant response rating, Lambsquarters [11, 17] | Plant response rating, Pigweed [12, 18]
100: Plant response rating, Goosegrass [7, 16] | Plant response rating, Velvetleaf [8, 16] | Velvetleaf plant response rating [8, 23] | Plant response rating, Lambsquarters [11, 16] | Plant response rating, Lambsquarters [11, 22] | Lambsquarters plant response rating [11, 23] | Plant response rating, Pigweed [12, 16] | Plant response rating, Pigweed [12, 22] | Pigweed plant response rating [12, 23]
98: Velvetleaf plant response rating [8, 20] | Soybean plant response rating (soybean (Glycine max); [20]) | Lambsquarters plant response rating [11, 20] | Plant response rating, Lambsquarters [11, 21] | Pigweed plant response rating [12, 20] | Plant response rating, Pigweed [12, 21]
20: Plant response rating, Canarygrass [1, 13]
70: Plant response rating, Foxtail, Giant [6, 19] | Plant response rating, Velvetleaf [8, 17] | Plant response rating, Velvetleaf [8, 18] | Plant response rating, Foxtail, Green [9, 16] | Johnsongrass plant response rating [10, 20]
40: Plant response rating, Windgrass [2, 15] | Plant response rating, Chickweed [3, 13] | Plant response rating, Corn (corn (Zea mays); [19]) | Plant response rating, Foxtail, Green [9, 18]
60: Canarygrass plant response rating ([1]; 250 g ai/ha, scale 0 to 100) | Windgrass plant response rating ([2]; 250 g ai/ha, scale 0 to 100) | Plant response rating, Foxtail, Giant [6, 17] | Plant response rating, Foxtail, Giant [6, 18] | Plant response rating, Goosegrass [7, 17] | Plant response rating, Soybean (soybean (Glycine max); [22]) | Johnsongrass plant response rating [10, 23]
35: Plant response rating, Corn (corn (Zea mays); [17]) | Plant response rating, Corn (corn (Zea mays); [18]) | Plant response rating, Nutsedge, Yellow [5, 19] | Nutsedge, Yellow plant response rating [5, 20] | Plant response rating, Foxtail, Green [9, 17] | Plant response rating, Johnsongrass [10, 17]

COCCn1c(-c2cccc(C)c2)ncc(C(=O)C2=C(O)C3CCC(C3)C2=O)c1=O (centres unmarked) [Compound 233]
20: Plant response rating, Canarygrass [1, 27]
30: Plant response rating, Corn (corn (Zea mays); [28])
85: Plant response rating, Corn (corn (Zea mays); [30]) | Plant response rating, Corn (corn (Zea mays); [31]) | Plant response rating, Goosegrass [7, 28] | Plant response rating, Velvetleaf [8, 29] | Plant response rating, Foxtail, Green [9, 28] | Plant response rating, Pigweed [12, 28]
55: Plant response rating, Windgrass [2, 25]
25: Plant response rating, Nutsedge, Yellow [5, 30] | Plant response rating, Nutsedge, Yellow [5, 31] | Plant response rating, Johnsongrass [10, 30] | Plant response rating, Johnsongrass [10, 31]
10: Plant response rating, Canarygrass [1, 26] | Plant response rating, Barley [4, 26] | Plant response rating, Barley [4, 27]
50: Plant response rating, Windgrass [2, 24] | Plant response rating, Corn (corn (Zea mays); [29])
98: Plant response rating, Foxtail, Giant [6, 30] | Plant response rating, Foxtail, Giant [6, 31] | Plant response rating, Goosegrass [7, 30] | Plant response rating, Goosegrass [7, 31] | Plant response rating, Soybean (soybean (Glycine max); [28]) | Plant response rating, Soybean (soybean (Glycine max); [29]) | Plant response rating, Lambsquarters [11, 28] | Plant response rating, Lambsquarters [11, 29] | Plant response rating, Pigweed [12, 29]
90: Plant response rating, Chickweed [3, 24] | Plant response rating, Foxtail, Giant [6, 28] | Plant response rating, Foxtail, Green [9, 29]
60: Plant response rating, Windgrass [2, 27]
80: Plant response rating, Velvetleaf [8, 28]
5: Plant response rating, Canarygrass [1, 25] | Plant response rating, Nutsedge, Yellow [5, 29] | Plant response rating, Johnsongrass [10, 29]
0: Plant response rating, Canarygrass [1, 24] | Plant response rating, Barley [4, 24] | Plant response rating, Barley [4, 25] | Plant response rating, Nutsedge, Yellow [5, 28] | Plant response rating, Johnsongrass [10, 28]
95: Plant response rating, Chickweed [3, 25] | Plant response rating, Foxtail, Giant [6, 29] | Plant response rating, Goosegrass [7, 29] | Plant response rating, Foxtail, Green [9, 30]
100: Plant response rating, Chickweed [3, 26] | Plant response rating, Chickweed [3, 27] | Plant response rating, Velvetleaf [8, 31] | Plant response rating, Foxtail, Green [9, 31] | Plant response rating, Soybean (soybean (Glycine max); [31]) | Plant response rating, Lambsquarters [11, 30] | Plant response rating, Lambsquarters [11, 31]
